Key:
MMP-2 = target: T1, MMP-2 (Homo sapiens, UniProt P08253); test: In vitro MMP inhibition, Ki determination (fluorogenic substrate II); type: biochemical; conditions: value not in parenthesis; read-out: MMP-2 Ki
T1 construct: made in house; host or cells: MMP-2-transfected p2AHT2 cells
T1 sequence (P08253 110-660): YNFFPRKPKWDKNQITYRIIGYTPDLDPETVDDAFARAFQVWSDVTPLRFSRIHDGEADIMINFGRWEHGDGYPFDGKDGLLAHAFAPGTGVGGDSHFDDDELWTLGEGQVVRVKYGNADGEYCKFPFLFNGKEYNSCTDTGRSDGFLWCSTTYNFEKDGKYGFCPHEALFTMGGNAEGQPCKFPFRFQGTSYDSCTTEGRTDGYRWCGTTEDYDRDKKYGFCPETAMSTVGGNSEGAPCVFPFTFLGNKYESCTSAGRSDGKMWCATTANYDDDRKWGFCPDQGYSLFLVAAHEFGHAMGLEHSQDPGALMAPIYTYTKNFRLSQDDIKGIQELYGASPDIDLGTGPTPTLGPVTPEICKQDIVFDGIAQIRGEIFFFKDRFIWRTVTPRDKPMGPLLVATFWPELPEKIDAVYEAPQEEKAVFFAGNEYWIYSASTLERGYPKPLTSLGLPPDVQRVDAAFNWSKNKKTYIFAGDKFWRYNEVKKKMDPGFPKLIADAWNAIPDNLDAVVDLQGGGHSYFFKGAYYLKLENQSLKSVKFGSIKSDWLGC

MMP-9 = target: T2, MMP-9 (Homo sapiens, UniProt P14780); test: as above; type: biochemical; conditions: value not in parenthesis
T2 construct: made in house; host or cells: MMP-9-transfected HT1080 cells (spent media)
Procedure, shortened: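 HT1080-derived MMP-9, activated with APMA, trypsin or MMP-3, incubated 1 hr at room temperature with inhibitor and 4 μM fluorogenic substrate II (at or below Km) in pH 7.5 Tris/NaCl/CaCl2 buffer; ex 330/em 420 nm. Ki from Morrison-equation regression, without substrate correction.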

T2 sequence (P14780 107-707 limits assumed): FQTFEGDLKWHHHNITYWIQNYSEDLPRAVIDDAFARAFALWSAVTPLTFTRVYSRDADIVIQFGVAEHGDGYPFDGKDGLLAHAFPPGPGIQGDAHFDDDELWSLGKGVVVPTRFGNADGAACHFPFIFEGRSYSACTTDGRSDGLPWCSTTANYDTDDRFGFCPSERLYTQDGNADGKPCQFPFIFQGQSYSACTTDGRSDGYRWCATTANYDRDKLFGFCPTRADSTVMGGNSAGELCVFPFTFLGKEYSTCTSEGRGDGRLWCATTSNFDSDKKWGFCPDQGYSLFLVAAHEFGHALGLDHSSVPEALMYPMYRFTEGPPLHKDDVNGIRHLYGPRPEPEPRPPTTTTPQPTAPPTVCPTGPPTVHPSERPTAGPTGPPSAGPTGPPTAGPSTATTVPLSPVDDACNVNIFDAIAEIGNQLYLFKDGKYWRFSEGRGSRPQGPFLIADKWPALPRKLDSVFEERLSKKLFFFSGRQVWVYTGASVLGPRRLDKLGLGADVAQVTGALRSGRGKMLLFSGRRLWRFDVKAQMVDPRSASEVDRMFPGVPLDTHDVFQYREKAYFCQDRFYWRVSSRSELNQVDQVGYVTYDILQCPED

| Structure (SMILES) | Ki (MMP-2) [nM] | Ki (MMP-9) [nM] |
| --- | --- | --- |
| CCCCOc1ccc(N2CCN(S(=O)(=O)C3(C(=O)NO)CCN(c4cccc(C)c4)CC3)CC2)cc1 [Example 226] | 10.4 | 19 |
| COCCSc1ccc(N2CCN(S(=O)(=O)C3(C(=O)NO)CCOCC3)CC2)cc1 [Example 227] | 2.47 | 17.2 |
| CCCCOc1ccc(N2CCN(S(=O)(=O)C3(C(=O)NO)CCN(c4ccc(OC)c(OC)c4)CC3)CC2)cc1 [Example 229] | 2.67 | 4.64 |
| CCCCOc1ccc(N2CCN(S(=O)(=O)C3(C(=O)NO)CCN(C(=O)N4CCN(C)CC4)CC3)CC2)cc1 [Example 230] | 0.46 | 0.87 |
| CCCCOc1ccc(N2CCN(S(=O)(=O)C3(C(=O)NO)CCN(C(=O)N4CCCC4)CC3)CC2)cc1 [Example 231] | 1.32 | 0.71 |
| CCCCOc1ccc(N2CCN(S(=O)(=O)C3(C(=O)NO)CCSCC3)CC2)cc1 [Example 232] | 26.5 | 2.3 |
| CCCCOc1ccc(N2CCN(S(=O)(=O)C3(C(=O)NO)CCN(CCN4CCOCC4)CC3)CC2)cc1 [Example 233] | 0.771 | 0.972 |
| CCOCCSc1ccc(N2CCN(S(=O)(=O)C3(C(=O)NO)CCOCC3)CC2)cc1 [Example 234] | 3.16 | 33.6 |
| CCCCOc1ccc(N2CCN(S(=O)(=O)C3(C(=O)NO)CCN(CCN(CC)CC)CC3)CC2)cc1 [Example 235] | 0.76 | 0.9 |
| CCCCCc1ccc(N2CCN(S(=O)(=O)C3(C(=O)NO)CCN(S(=O)(=O)N(C)C)CC3)CC2)cc1 [Example 236] | 2.58 | 2.61 |
| CCCCCc1ccc(N2CCN(S(=O)(=O)C3(C(=O)NO)CCN(S(C)(=O)=O)CC3)CC2)cc1 [Example 237] | 2.03 | 2.79 |
| CCCCOc1ccc(N2CCN(S(=O)(=O)C3(C(=O)NO)CCN(CCCC(F)(F)F)CC3)CC2)cc1 [Example 238] | 1.63 | 2.49 |
| CCCCCc1ccc(N2CCN(S(=O)(=O)C3(C(=O)NO)CCN(C(C)=O)CC3)CC2)cc1 [Example 239] | 0.54 | 0.46 |
| CCCCOc1ccc(N2CCN(S(=O)(=O)C3(C(=O)NO)CCN(C(=O)NC(C)(C)C)CC3)CC2)cc1 [Example 240] | 0.536 | 1.03 |
| CCCCOc1ccc(N2CCN(S(=O)(=O)C3(C(=O)NO)CCN(c4ccc(N(C)C)cc4)CC3)CC2)cc1 [Example 241] | 3.64 | 4.74 |
| CCCCOc1ccc(N2CCN(S(=O)(=O)C3(C(=O)NO)CCN(C(=O)N(CC)CC)CC3)CC2)cc1 [Example 242] | 0.591 | 1.14 |
| CCCCOc1ccc(N2CCN(S(=O)(=O)C3(C(=O)NO)CCN(C(=O)N4CCCCC4)CC3)CC2)cc1 [Example 243] | 0.34 | 0.7 |
| CCCCOc1ccc(N2CCN(S(=O)(=O)C3(C(=O)NO)CCN(C(=O)N(C(C)C)C(C)C)CC3)CC2)cc1 [Example 244] | 1.57 | 3.9 |
| CCCCOc1ccc(N2CCN(S(=O)(=O)C3(C(=O)NO)CCN(Cc4nccn4C)CC3)CC2)cc1 [Example 245] | 0.475 | 0.588 |
| CCCCOc1ccc(N2CCN(S(=O)(=O)C3(C(=O)NO)CCN(Cc4ccc(C)o4)CC3)CC2)cc1 [Example 246] | 1.2 | 1.74 |
| CCCCOc1ccc(N2CCN(S(=O)(=O)C3(C(=O)NO)CCN(Cc4ncc[nH]4)CC3)CC2)cc1 [Example 247] | 0.686 | 0.718 |
| CCCCOc1ccc(N2CCN(S(=O)(=O)C3(C(=O)NO)CCN(c4ccc(OC)cc4)CC3)CC2)cc1 [Example 249] | 4.98 | 11.3 |

From US20050209278A1, “Piperidinyl- and piperazinyl-sulfonylmethyl hydroxamic acids and their use as protease inhibitors” (priority 2002, published 2005)
